The text below walks through data of ChEMBL document CHEMBL5357031, “Design and Synthesis of Cytotoxic Water-Soluble Rocaglaol Derivatives against HEL Cells by Inhibiting Fli-1” (J Nat Prod, 2024).

For orientation: IC50 means the midpoint of a concentration-inhibition curve.

SMILES strings stand for the structures.

The test system of assay [1] is SW480. The assay can be described thus: Cytotoxicity against human SW480 cells assessed as cell growth inhibition incubated for 72 hrs by MTT assay. Format: functional, cell-based. The following applies: Homo sapiens, SW480, 72 h. A general note: Tetrazolium dyes change colour on reduction, which living cells bring about.
The test system of assay [2] is HEL. The assay can be described thus: Cytotoxicity against HEL cells assessed as cell growth inhibition incubated for 72 hrs by MTT assay. Format: functional, cell-based, Homo sapiens.
Assay [3] deals with MDA-MB-231. Kind of assay: cells. The following applies: Homo sapiens, MDA-MB-231, 72 h.
Description: Cytotoxicity against human MDA-MB-231 cells assessed as cell growth inhibition incubated for 72 hrs by MTT assay

Take `CCN(CC)CCCCCOc1ccc([C@@]23Oc4cc(OC)cc(OC)c4[C@]2(O)[C@H](O)C[C@H]3c2ccccc2)cc1` (racemic): the concentration for half-maximal inhibition (IC50) in assay [1] worked out at 690 nM; in assay [2] (Homo sapiens, HEL, 72 h), 260 nM; in assay [3], 130 nM.
As to `CCN(CC)CCCCCCCCOc1ccc([C@@]23Oc4cc(OC)cc(OC)c4[C@]2(O)[C@H](O)C[C@H]3c2ccccc2)cc1` (racemic), the IC50 stood at 650 nM in assay [1]; 390 nM in assay [2] (Homo sapiens, HEL, 72 h); 470 nM in assay [3].
With `CCN(CC)CCOc1ccc([C@@]23Oc4cc(OC)cc(OC)c4[C@]2(O)[C@H](O)C[C@H]3c2ccccc2)cc1` (racemic), the IC50 is above 1000 nM in assay [1]; above 1000 nM in assay [2] (Homo sapiens, HEL, 72 h); above 1000 nM in assay [3].
Consider `COc1cc(OC)c2c(c1)O[C@@]1(c3ccc(OCCCCN(C)C)cc3)[C@H](c3ccccc3)C[C@@H](O)[C@@]21O` (racemic), for which the IC50 in assay [1] is above 1000 nM; in assay [2] (Homo sapiens, HEL, 72 h) it was above 1000 nM; in assay [3], 580 nM.
For `COc1cc(OC)c2c(c1)O[C@@]1(c3ccc(OCCCCCN(C)C)cc3)[C@H](c3ccccc3)C[C@@H](O)[C@@]21O` (racemic), the IC50 is above 1000 nM in assay [1]; 170 nM in assay [2] (Homo sapiens, HEL, 72 h); 370 nM in assay [3].
As for `COc1cc(OC)c2c(c1)O[C@@]1(c3ccc(OCCCCN4CCCCC4)cc3)[C@H](c3ccccc3)C[C@@H](O)[C@@]21O` (racemic), the 50% inhibitory concentration (IC50) was above 1000 nM in assay [1]; 460 nM in assay [2] (Homo sapiens, HEL, 72 h); 660 nM in assay [3].
On to `COc1cc(OC)c2c(c1)O[C@@]1(c3ccc(OCCN4CCCCC4)cc3)[C@H](c3ccccc3)C[C@@H](O)[C@@]21O` (racemic), for which the concentration for half-maximal inhibition (IC50) in assay [1] is above 1000 nM; in assay [2] (Homo sapiens, HEL, 72 h) it was above 1000 nM; in assay [3], above 1000 nM.
Regarding `COc1cc(OC)c2c(c1)O[C@@]1(c3ccc(OCCCCCCCCN4CCCCC4)cc3)[C@H](c3ccccc3)C[C@@H](O)[C@@]21O` (racemic), the IC50 is above 1000 nM in assay [1]; 240 nM in assay [2] (Homo sapiens, HEL, 72 h); above 1000 nM in assay [3].
Consider `COc1cc(OC)c2c(c1)O[C@@]1(c3ccc(OCCCCCN4CCCCC4)cc3)[C@H](c3ccccc3)C[C@@H](O)[C@@]21O` (racemic), for which the half-maximal inhibitory concentration (IC50) in assay [1] was above 1000 nM; in assay [2] (Homo sapiens, HEL, 72 h), 180 nM; in assay [3], 190 nM.
The corresponding values for `COc1cc(OC)c2c(c1)O[C@@]1(c3ccc(OCCCCN4CCN(C)CC4)cc3)[C@H](c3ccccc3)C[C@@H](O)[C@@]21O` (racemic) are 650 nM, 380 nM and 220 nM.
The corresponding values for `COc1cc(OC)c2c(c1)O[C@@]1(c3ccc(OCCN(C)C)cc3)[C@H](c3ccccc3)C[C@@H](O)[C@@]21O` (racemic) are above 1000 nM, above 1000 nM and above 1000 nM.
Turning to `COc1cc(OC)c2c(c1)O[C@@]1(c3ccc(OCCN4CCN(C)CC4)cc3)[C@H](c3ccccc3)C[C@@H](O)[C@@]21O` (racemic), the IC50 is above 1000 nM in assay [1]; above 1000 nM in assay [2] (Homo sapiens, HEL, 72 h); above 1000 nM in assay [3].
Turning to `COc1cc(OC)c2c(c1)O[C@@]1(c3ccc(OCCCCCCCCN(C)C)cc3)[C@H](c3ccccc3)C[C@@H](O)[C@@]21O` (racemic), the half-inhibitory concentration (IC50) is above 1000 nM in assay [1]; 220 nM in assay [2] (Homo sapiens, HEL, 72 h); 210 nM in assay [3].
The corresponding values for `CCN(CC)CCCCOc1ccc([C@@]23Oc4cc(OC)cc(OC)c4[C@]2(O)[C@H](O)C[C@H]3c2ccccc2)cc1` (racemic) are above 1000 nM, above 1000 nM and 550 nM.
On to `COc1cc(OC)c2c(c1)O[C@@]1(c3ccc(OCCCCCN4CCN(C)CC4)cc3)[C@H](c3ccccc3)C[C@@H](O)[C@@]21O` (stereo in doubt; (+)-18o), for which the 50% inhibitory concentration (IC50) in assay [2] (hel) was above 1000 nM.
`COc1cc(OC)c2c(c1)O[C@@]1(c3ccc(OCCCCCN4CCN(C)CC4)cc3)[C@H](c3ccccc3)C[C@@H](O)[C@@]21O` (stereo in doubt; (-)-18o): the IC50 in assay [2] (hel) stood at 120 nM.
